Laboratory results taken from US20130295080A1, “Pharmaceutical composition for treating melasma and preparation method thereof” (Jilin Zixin Pharmaceutical Research Institution LLC, priority 2011, published 2013).

What was measured:
Format in all cases: in vivo, Kunming female mice
[1] = viscosity of the whole blood of mice with progesterone-induced melasma; conditions: vitamin C group
SOD in mice livers = SOD in mice livers (reagent kit, spectrophotometer); conditions: vitamin C group
MDA in mice livers = test: MDA content in mice livers; conditions: vitamin C group, dosage 0.1, once a day for 30 d, progesterone-modeled mice
SOD in mice skins = test: SOD in mice skins; conditions: vitamin C group, dosage 0.1, once a day for 30 d, progesterone-modeled mice
MDA in mice skins = test: MDA content in mice skins
NO in mice skins = test: NO content in mice skins; conditions: vitamin C group, dosage 0.1, once a day for 30 d, progesterone-modeled mice
[2] = test system: melanin cells in skins of mice; test: melanin cells in skins of mice, HMB45 immunohistochemistry with image analysis; conditions: mouse skin, vitamin C group, progesterone-modeled mice
[3] = dosage 0.1, once a day for 30 d, progesterone-modeled mice
[4] = melanin-positive target, dosage 0.1, once a day for 30 d

O=C1O[C@H]([C@@H](O)CO)C(O)=C1O [vitamin C]
blood viscosity with different shear rates (mPas) 1/s ([1]; shear rate 1/s, dosage 0.1, once a day for 30 d, progesterone-modeled mice): 29.22 ± 2.18 mPas
blood viscosity with different shear rates (mPas) 30/s ([1]; shear rate 30/s, dosage 0.1, once a day for 30 d, progesterone-modeled mice): 11.22 ± 1.75 mPas
blood viscosity with different shear rates (mPas) 100/s ([1]; shear rate 100/s, dosage 0.1, once a day for 30 d, progesterone-modeled mice): 4.60 ± 1.36 mPas
blood viscosities with different shear rates compared with the normal control group [1]: obviously increased
blood viscosity with different shear rates (mPas) 3/3 [1, 3]: 28.85 ± 4.35 mPas
SOD activities compared with the modeling control group (SOD in mice livers): obviously increased
SOD (SOD in mice livers; [3]): 45.62 ± 16.04
MDA (MDA in mice livers): 4.58 ± 1.26
SOD (SOD in mice skins): 19.95 ± 5.33
MDA (MDA in mice skins; vitamin C group, dosage 0.1, once a day for 30 d, progesterone-modeled mice): 4.20 ± 1.34
MDA contents compared with the modeling control group (MDA in mice skins; vitamin group): obviously decreased
NO (NO in mice skins): 1.71 ± 0.52
average optical density [2, 4]: 0.33 ± 0.14
integrated optical density [2, 4]: 1152.52 ± 344.09
average size of positive target ([2]; dosage 0.1, once a day for 30 d): 3720.56 ± 1191.13
